Values of other authors in patent publication US20020187165A1, “Composition for female sexual arousal” (Joseph F. Long, priority 2001, published 2002).

Details: following oral administration

time of peak plasma concentrations: 1 to 2 h
SMILES: Cn1cc([S+](C)[O-])c(=O)c2ccc(F)cc21 (stereo not shown) [flosequinan]
